Tests used:
Type in all cases: physicochemical
[1] = Solvent solubility (butyl acetate, toluene or PGMEA); settings: 25° C.
Procedure: In a test tube, 0.1 g of the synthesized photoacid generator was placed, and an organic solvent (butyl acetate, toluene or PGMEA) was added thereto in 0.2 g portions under a condition where the temperature was adjusted to 25° C. until the photoacid generator was completely dissolved. In this connection, in the case where the photoacid generator was not completely dissolved even when 20 g of the solvent was added, the photoacid generator was evaluated as one that was not dissolved.

[2] = Thermal decomposition temperature (TG/DTA, 2% weight reduction); settings: point of 2% weight reduction; 10° C./minute from 30° C. to 500° C.; nitrogen atmosphere
Procedure: The synthesized photoacid generator was measured for the change in weight under a temperature increasing condition of 10° C./minute from 30° C. to 500° C. under a nitrogen atmosphere using a thermal gravimetric/differential thermal analyzer (TG/DTA 6200, available from Seiko Instruments Inc.), and a point where the weight was reduced by 2% was defined as the thermal decomposition temperature.

[3] = Molar extinction coefficient of i-line (365 nm), UV-visible absorbance in acetonitrile; settings: 0.25 mmol/L in acetonitrile, cell length 1 cm
Procedure: The synthesized photoacid generator was diluted to 0.25 mmol/L with acetonitrile, and using an ultraviolet-visible spectrophotometer (UV-2550 available from SHIMADZU CORPORATION), the absorbance in a range of 200 nm to 500 nm was measured with a cell having an optical path length (a cell length) of 1 cm. The molar extinction coefficient of i-line (365 nm) (ε365) was calculated from the following equation.
[In the equation, […] represents the absorbance at 365 nm.]

Solvent solubility PGMEA [1] [wt %] | Solvent solubility Butyl acetate [1] [wt %] | Solvent solubility Toluene [1] [wt %] | Thermal decomposition temperature [2] [°C] | Molar extinction coefficient [3] [L/mol/cm] | SMILES
3.5 | 3 | 5 | 225 | 6000 | O=C1c2cccc3c(Cl)ccc(c23)C(=O)N1OS(=O)(=O)c1c(F)c(F)c(F)c(F)c1F [Example A-39, 4-chloro-1,8-naphthalimide pentafluorobenzenesulfonate]
23 | 25 | 28 | 244 | 80 | O=C1c2cccc3c(C(F)(F)C(F)(F)C(F)(F)C(F)(F)C(F)(F)C(F)(F)C(F)(F)C(F)(F)F)ccc(c23)C(=O)N1OS(=O)(=O)c1c(F)c(F)c(F)c(F)c1F [Example A-37, 4-(heptadecafluoro-n-octyl)-1,8-naphthalimide pentafluorobenzenesulfonate]
6 | 6.5 | 6 | 245 | 6500 | CC(C)(C)c1cc2c3c(cc(C(C)(C)C)cc3c1)C(=O)N(OS(=O)(=O)c1c(F)c(F)c(F)c(F)c1F)C2=O [Example A-33, 3,6-di-tert-butyl-1,8-naphthalimide pentafluorobenzenesulfonate]
7 | 7.5 | 10 | 232 | 12000 | O=C1c2cccc3c(OCC(F)(F)C(F)F)ccc(c23)C(=O)N1OS(=O)(=O)c1c(F)c(F)c(F)c(F)c1F [Example A-23, 4-(2,2,3,3-tetrafluoro-1-propoxy)-1,8-naphthalimide pentafluorobenzenesulfonate]
7.5 | 6 | 12 | 230 | 12000 | O=C1c2cccc3c(OCC(F)(F)C(F)F)ccc(c23)C(=O)N1OS(=O)(=O)C(F)(F)F [Example A-3, 4-(2,2,3,3-tetrafluoro-1-propoxy)-1,8-naphthalimide trifluoromethanesulfonate]
>30 | <0.5 | <0.5 | 340 | 80 | c1ccc(Sc2ccc([S+](c3ccccc3)c3ccccc3)cc2)cc1 [A′-2, reference compound]
5 | 6 | 6 | 245 | 1400 | CC1(C)C2CC[C@@]1(CS(=O)(=O)ON1C(=O)c3cccc4cc(OC(=O)c5ccccc5)cc(c34)C1=O)C(=O)C2 [Example A-51, 3-benzoyloxy-1,8-naphthalimide-(+)-10-camphorsulfonate]
>30 | >30 | >30 | 242 | 80 | O=C1c2cccc3c(C(F)(F)C(F)(F)C(F)(F)C(F)(F)C(F)(F)C(F)(F)C(F)(F)C(F)(F)F)ccc(c23)C(=O)N1OS(=O)(=O)C(F)(F)F [Example A-17, 4-(heptadecafluoro-n-octyl)-1,8-naphthalimide trifluoromethanesulfonate]
6 | 8 | 7.5 | 243 | 7500 | COc1cc2c3c(cccc3c1)C(=O)N(OS(=O)(=O)C(F)(F)F)C2=O [Example A-8, 3-methoxy-1,8-naphthalimide trifluoromethanesulfonate]
4 | 4.5 | 8 | 230 | 8500 | O=C1c2cccc3c(Br)ccc(c23)C(=O)N1OS(=O)(=O)C(F)(F)F [Example A-20, 4-bromo-1,8-naphthalimide trifluoromethanesulfonate]
4.5 | 4 | 3.5 | 236 | 16300 | CC(C)Oc1ccc2c3c(cccc13)C(=O)N(OS(=O)(=O)c1c(F)c(F)c(F)c(F)c1F)C2=O [Example A-21, 4-isopropoxy-1,8-naphthalimide pentafluorobenzenesulfonate]
7.2 | 9 | 7 | 237 | 1600 | CCCC(=O)Oc1cc2c3c(cccc3c1)C(=O)N(OS(=O)(=O)CC13CCC(CC1=O)C3(C)C)C2=O (stereo not drawn) [Example A-50, 3-butyroyloxy-1,8-naphthalimide-(+)-10-camphorsulfonate]
1.7 | 2 | 1.9 | 247 | 6500 | CC(C)(C)c1cc2c3c(cc(C(C)(C)C)cc3c1)C(=O)N(OS(=O)(=O)CC13CCC(CC1=O)C3(C)C)C2=O (stereo not drawn) [Example A-53, 3,6-di-tert-butyl-1,8-naphthalimide-(+)-10-camphorsulfonate]
9 | 11 | 10 | 241 | 16000 | O=C1c2cccc3c(Oc4cccc(C(F)(F)F)c4)ccc(c23)C(=O)N1OS(=O)(=O)c1c(F)c(F)c(F)c(F)c1F [Example A-26, 4-(3-trifluoromethylphenoxy)-1,8-naphthalimide pentafluorobenzenesulfonate]
3.2 | 3 | 4.5 | 243 | 8500 | O=C1c2cccc3c(Br)ccc(c23)C(=O)N1OS(=O)(=O)c1c(F)c(F)c(F)c(F)c1F [Example A-40, 4-bromo-1,8-naphthalimide pentafluorobenzenesulfonate]
1.5 | 2 | 1.9 | 242 | 7500 | COc1cc2c3c(cccc3c1)C(=O)N(OS(=O)(=O)C[C@]13CCC(CC1=O)C3(C)C)C2=O [Example A-48, 3-methoxy-1,8-naphthalimide-(+)-10-camphorsulfonate]
11 | 14 | 13 | 239 | 16000 | O=C1c2cccc3c(Oc4cccc(C(F)(F)F)c4)ccc(c23)C(=O)N1OS(=O)(=O)C(F)(F)F [Example A-6, 4-(3-trifluoromethylphenoxy)-1,8-naphthalimide trifluoromethanesulfonate]
9 | 9.5 | 10 | 246 | 80 | CC1(C)C2CCC1(CS(=O)(=O)ON1C(=O)c3cccc4c(C(F)(F)C(F)(F)C(F)(F)C(F)(F)C(F)(F)C(F)(F)C(F)(F)C(F)(F)F)ccc(c34)C1=O)C(=O)C2 (stereo not drawn) [Example A-57, 4-(heptadecafluoro-n-octyl)-1,8-naphthalimide-(+)-10-camphorsulfonate]
1.5 | 1.1 | 2 | 240 | 8500 | CC1(C)C2CCC1(CS(=O)(=O)ON1C(=O)c3cccc4c(Br)ccc(c34)C1=O)C(=O)C2 (stereo not drawn) [Example A-60, 4-bromo-1,8-naphthalimide-(+)-10-camphorsulfonate]
11 | 14 | 13 | 247 | 12000 | O=C1c2cccc3c(Oc4c(F)c(F)c(F)c(F)c4F)ccc(c23)C(=O)N1OS(=O)(=O)c1c(F)c(F)c(F)c(F)c1F [Example A-25, 4-pentafluorophenoxy-1,8-naphthalimide pentafluorobenzenesulfonate]
>30 | >30 | >30 | 234 | 1600 | CCCC(=O)Oc1cc2c3c(cccc3c1)C(=O)N(OS(=O)(=O)C(F)(F)F)C2=O [Example A-10, 3-butyroyloxy-1,8-naphthalimide trifluoromethanesulfonate]
